According to PubChem BioAssay (NCI):
Values joined by “and” are separate entries in the source; they are usually repeats but may differ in a detail not shown here. Equal values may be shown once.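 Step 1: Grow cells in 96-well plates. Step 2: Expose to compound for 48 hours at 5 concentrations. Step 3: Interpolate endpoints linearly; if unreached, use highest concentration. GI50: concentration for 50% inhibition of growth. TGI denotes the concentration required for complete inhibition of growth.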

Key:
Experiment in all cases: growth of human tumour cells (NCI), 48 h
IGROV1 ovarian = tested on: IGROV1 ovarian
CCRF-CEM leukemia = tested on: CCRF-CEM leukemia
BT-549 breast = tested on: BT-549 breast
MALME-3M melanoma = tested on: MALME-3M melanoma
HCC-2998 colon = tested on: HCC-2998 colon
NCI/ADR-RES ovarian = tested on: NCI/ADR-RES ovarian
LOX IMVI melanoma = tested on: LOX IMVI melanoma
ACHN renal = tested on: ACHN renal
HT29 colon = tested on: HT29 colon
NCI-H522 lung = tested on: NCI-H522 lung
OVCAR-8 ovarian = tested on: OVCAR-8 ovarian
A498 renal = tested on: A498 renal

| Structure (SMILES) | TGI (IGROV1 ovarian) | TGI (CCRF-CEM leukemia) | TGI (BT-549 breast) | TGI (MALME-3M melanoma) | TGI (HCC-2998 colon) | TGI (NCI/ADR-RES ovarian) | TGI (LOX IMVI melanoma) | TGI (ACHN renal) | TGI (HT29 colon) | TGI (NCI-H522 lung) | TGI (OVCAR-8 ovarian) | GI50 (BT-549 breast) | GI50 (MALME-3M melanoma) | GI50 (NCI/ADR-RES ovarian) | GI50 (LOX IMVI melanoma) | GI50 (A498 renal) | TGI (A498 renal) | GI50 (IGROV1 ovarian) |
| --- | --- | --- | --- | --- | --- | --- | --- | --- | --- | --- | --- | --- | --- | --- | --- | --- | --- | --- |
| Clc1ccc(C=Nc2ccc(Oc3ccc(Cl)cc3)c(Cl)c2)cc1 | > 100 µM | 59.7 µM | 53.3 µM | 49.2 µM | 45.6 µM | 58.5 µM | 39.1 µM | > 100 µM | 55 µM | 32.3 µM | > 100 µM | – | – | – | – | – | – | – |
| COc1cc([C@@H]2c3cc4c(cc3[C@@H](Nc3ccc(NC(=O)c5cc([N+](=O)[O-])cn5C)cc3)[C@H]3COC(=O)[C@H]23)OCO4)cc(OC)c1O | – | 0.14 µM | > 100 µM | – | 0.8 µM and 0.872 µM | > 31.6 µM | – | 0.484 µM and 0.164 µM | 1.33 µM | > 100 µM | 1.04 µM | 0.515 µM | 0.279 µM and 0.115 µM | 2.17 µM | 0.111 µM and 0.0268 µM | 0.0233 µM and 0.0897 µM | 0.402 µM and 0.476 µM | – |
| COC(=O)[C@@H]1CO[C@H](C(C)(C)C)N1C(=O)N1C=CC(=O)C[C@H]1C | > 100 µM | > 100 µM | > 100 µM | > 100 µM | – | > 100 µM | > 100 µM | > 100 µM | > 100 µM | > 100 µM | > 100 µM | – | – | – | – | – | > 100 µM | – |
| COc1cc(C2c3cc4c(cc3OC(NN)C2C)OCO4)cc(OC)c1O (centres undefined) | > 100 µM | – | 51.3 µM | 40.1 µM | 29.6 µM | 94 µM | – | – | – | 42.2 µM | 67.8 µM | – | – | – | – | – | – | – |
| CC(=O)c1ccc(Nc2c3c(nc4ccccc24)CCCC3)cc1 | 23.8 µM | > 100 µM | > 41.3 µM | – | > 100 µM | 56.2 µM | > 41.4 µM | > 100 µM | 42.6 µM | 16.6 µM | 70.9 µM | – | – | – | – | – | > 59.7 µM | – |
| NS(=O)(=O)c1nnc(NC(=S)NC(=O)Nc2ccc(Cl)c(Cl)c2)s1 | 46.7 µM | > 100 µM | 50.2 µM | 59 µM | – | 62.6 µM | 34 µM | – | 71.9 µM | 31 µM | 69.7 µM | – | – | – | – | – | – | – |
| COC(=O)/C=C/c1ccc(OP(=O)(O)O)c(OC)c1 | > 100 µM | > 100 µM | > 100 µM | > 100 µM | > 100 µM | – | > 100 µM | > 100 µM | > 100 µM | > 100 µM | > 100 µM | – | – | – | – | – | > 100 µM | – |
| CCOC(=O)c1cn(CC)c(=O)n2c1nc1ccccc12 | > 100 µM | > 100 µM | > 100 µM | – | > 100 µM | > 100 µM | 84.1 µM | > 100 µM | > 100 µM | – | > 100 µM | – | – | – | – | – | > 100 µM | – |
| CSc1nncc(-c2cc3c(c(SC)n2)CCCC3)n1 | – | > 100 µM | > 100 µM | – | > 100 µM | > 100 µM | – | > 100 µM | > 100 µM | > 100 µM | > 100 µM | – | – | – | – | – | > 100 µM | – |
| NCCOc1cccc(C2(N3CCCCC3)CCCCC2)c1 | – | 35.8 µM | 40 µM | 35.1 µM | 37.5 µM | > 100 µM | 28.9 µM | > 100 µM | 41.2 µM | 36.1 µM | > 100 µM | – | – | – | – | – | 98.6 µM | – |
| O=S(=O)(/N=C(\NO)Nc1ccc(Cl)cc1)c1cc(C(F)(F)F)cc(C(F)(F)F)c1 | 31.6 µM | > 100 µM | 33.3 µM | 37.1 µM | – | 58.1 µM | 34.2 µM | 31.3 µM | 34.3 µM | 40.4 µM | 34.5 µM | – | – | – | – | – | – | – |
| Cn1c(CNc2ccc(-c3n[nH]c(=S)n3C)cc2)n[nH]c1=S | > 100 µM | > 100 µM | > 100 µM | > 100 µM | > 100 µM | > 100 µM | > 100 µM | > 100 µM | > 100 µM | > 100 µM | > 100 µM | – | – | – | – | – | – | – |
| O=[N+]([O-])c1cccc2nc3ccccc3c(NCCCCCNc3c4ccccc4nc4cccc([N+](=O)[O-])c34)c12 | 0.506 µM and 1.2 µM | – | 0.39 µM and 1.02 µM | 0.16 µM | 0.103 µM and 0.04 µM | 2.19 µM and 1.28 µM | – | 0.115 µM and 0.0165 µM | 0.0922 µM | 0.388 µM | 0.348 µM | 0.183 µM | – | 0.297 µM | 0.0746 µM | – | 0.248 µM | 0.127 µM |
| COc1ccc(CCCCNCc2cccc(CNCCCCc3ccc(OC)cc3)c2)cc1 | 3.32 µM | 4.47 µM | 3.36 µM | 3.6 µM | 0.922 µM | 3.19 µM | 3.23 µM | 3.47 µM | 3.16 µM | 3.5 µM | 3.23 µM | – | – | – | – | – | – | – |
| Cc1ccc(N=N/C(=N/NC(=O)c2ccccc2)c2ccc(N(CCC#N)CCC#N)cc2C)cc1 | > 100 µM | > 100 µM | > 100 µM | > 100 µM | > 100 µM | > 100 µM | – | > 100 µM | 53.7 µM | 42.2 µM | > 100 µM | – | – | – | – | – | 88.1 µM | – |
| NNc1nnc(CCCCCCCCc2nnc(NN)n2N)n1N | > 100 µM | > 100 µM | 90.3 µM | – | > 100 µM | > 100 µM | > 100 µM | > 100 µM | > 100 µM | > 100 µM | 76.7 µM | – | – | – | – | – | > 100 µM | – |
| CC(=O)NC1C(OCC(=O)NCCNc2ccc([N+](=O)[O-])c3[nH]c4ccccc4c(=O)c23)C(O)C(CO)OC1(C)OCc1ccccc1 (centres undefined) | > 100 µM | > 100 µM | > 100 µM | – | > 100 µM | > 100 µM | > 100 µM | > 100 µM | > 100 µM | > 100 µM | > 100 µM | – | – | – | – | – | > 100 µM | – |
| Cc1nc2sc3cccc(Cl)c3n2c(=O)c1N=Nc1ccc(Cl)cc1 | > 100 µM | > 100 µM | > 100 µM | > 100 µM | – | > 100 µM | > 100 µM | > 100 µM | > 100 µM | > 100 µM | > 100 µM | – | – | – | – | – | 67.6 µM | – |
| O=C(CCc1cc(O)cc(O)c1)NCCc1cc(O)cc(OCc2ccccc2)c1 | > 100 µM | – | 66.1 µM | – | 39.1 µM | > 100 µM | > 100 µM | 81.6 µM | > 100 µM | > 100 µM | > 100 µM | – | – | – | – | – | > 100 µM | – |
